Entries after “also recorded” stand apart in the source; their conditions may differ. Where a name gives a salt, the structure may show the parent alone. Read-outs that look alike come from different tables or passages of the source. *1 amine or outer side, *2 acyl side, *3 side chain or, on linkers, in order; H or OH if unused. Where a SMILES comes first, the peptide text is derived from it. Bridges are numbered along the chain shown (N, C = ends). Roman numbers before positions name the chains, in order. [ ]: non-standard residue; d: D form. Actinocin(9to1) = Cc1c2oc3c(C)ccc(C(=O)[*:1])c3nc-2c(C(=O)[*:2])c(N)c1=O; NMeV = CN[C@H](C(=O)O)C(C)C; Sar = CNCC(=O)O
Experiments:
[1] = cited from earlier work; for absorption: oral / gastrointestinal absorption; for peak concentration in plasma: usual clinical doses
[2] = tested on: Human lung carcinoma cells A549; format: in vivo, mice
[3] = tested on: Human breast carcinoma cells, MDA-MB-231; format: in vivo, mice
[4] = tested on: Human colon carcinoma cells, SW-480; format: in vivo, mice
[5] = mouse, in vivo
[6] = mouse, in vivo; remark: listed apart in the source
[7] = cited from earlier work
[8] = cited from earlier work; remark: listed apart in the source
[9] = cited from earlier work; remark: listed apart in the source
[10] = physiological pH; cited from earlier work
[11] = tested on: p53; format: cell-based
[12] = set-up: species or system mice; conditions: mouse, in vivo
[13] = tested on: MCF10A cells; format: cell-based, human
[14] = tested on: peripheral blood lymphocytes; set-up: species or system mice; conditions: mouse, in vivo
[15] = tested on: p53; assay: C57BL/6 WT and p53 R172P knock-in mice, protection by arsenic (body weight); format: in vivo; conditions: p53 mutant (R172P knock-in) mice, in contrast with wild type littermates
Experimental: Mutant p53 expressing mouse model was employed to test whether the observed protective effect of arsenic was mediated by p53 inactivation. Black C57BL/6 WT or p53 R172P knock in mice at age of 4-6 weeks old) were obtained from Dr. Lazona. Mice were housed under pathogen-free conditions and maintained on a 12 h light/12 h dark cycle, with food and water supplied ad libitum., mice were randomized into following groups; control; X-ray irradiation only; arsenite and X-ray irradiation. For arsenite pretreatment, mice were fed with water containing sodium arsenite (as 1.0 mg/L) for 3 days. Mice were then irradiated with 2Gy TBI daily for one week. Body weight was monitored throughout the period of the experiment. The numbers are means±SE from two independent experiments with total of 10 mice per group.

[16] = mouse, in vivo; remark: listed apart in the source
[17] = mouse, in vivo; remark: listed apart in the source
[18] = tested on: human adult foreskin keratinocytes; conditions: cited from earlier work
[19] = 5FU 30 mg/kg i.v. daily for one week

Compound: COc1cccc2c1C(=O)c1c(O)c3c(c(O)c1C2=O)C[C@@](O)(C(C)=O)C[C@@H]3O[C@H]1C[C@H](N)[C@H](O)[C@H](C)O1 [Daunorubicin, 5,12-Naphthacenedione, (8S-cis)-8-acetyl-10-((3-amino-2,3,6-trideoxy-a-L-lyxo-hexanopyranosyl)oxy)-7,8,9,10-tetrahydro-6,8,11-trihydroxy-10-methoxy hydrochloride]
- elimination half-life ([1]; in vivo): about 19 hr
- secreted into the bile ([1]; in vivo): ~40%
- absorption [1]: poor

Compound: COc1cccc2c1C(=O)c1c(O)c3c(c(O)c1C2=O)C[C@@](O)(C(=O)CO)C[C@@H]3O[C@H]1C[C@H](N)[C@H](O)[C@H](C)O1 [Doxorubicin, 5,12-Naphthacenedione, (8s-cis)-10-((3-amino-2,3,6-trideoxy-a-L-lyxo-hexopyranosyl)oxy)-7,8,9,10-tetrahydro-6,8,11-trihydroxy-8-(hydroxyacetyl)-1-methoxy-hydrochloride]
- elimination half-life ([1]; in vivo): about 30 hr
- excreted into the urine ([1]; in vivo): a few
- absorption [1]: absorbed poorly

Compound: O=c1[nH]cc(F)c(=O)[nH]1 [5FU, Fluorouracil]
- tumor volume ([2]; 5FU 30 mg/kg intravenous daily for one week): marked tumor regression
- tumor volume [3, 19]: marked tumor regression
- tumor volume [4, 19]: marked tumor regression
- damage to small intestine and bone marrow cells [5]: severe damages to small intestine and bone marrow cells
- bone marrow cellularity [6]: Bone marrow cell exhaustion
- damage to the small intestine (crypt size and morphology) [6]: severe damages to the small intestine

Compound: Bleomycin
- time to improvement ([7]; Hodgkin's Disease and testicular tumors): ≤ 2 weeks
- time to improvement ([7]; squamous cell cancers): ≤ 3 weeks
- tissue concentrations ([8]; hematopoietic tissue / bone marrow): low concentrations
- tissue concentrations ([8]; skin, lungs, kidneys, peritoneum, lymphatics): high concentrations
- administered dose recovered in the urine as active bleomycin ([9]; human, in vivo): 60% to 70%
- plasma or serum terminal elimination half-life ([9]; patients with creatinine clearance <35 mL per minute, as creatinine clearance decreases): increases exponentially
- serum or plasma terminal elimination half-life ([9]; patients with creatinine clearance >35 mL per minute): approximately 115 minutes

Compound: CC[C@]1(O)C[C@H]2CN(CCc3c([nH]c4ccccc34)[C@@](C(=O)OC)(c3cc4c(cc3OC)N(C=O)[C@H]3[C@@](O)(C(=O)OC)[C@H](OC(C)=O)[C@]5(CC)C=CCN6CC[C@]43[C@@H]65)C2)C1 [Vincristine]
- plasma protein binding ([1]; in vivo): bind to plasma proteins
- terminal half-life ([1]; multiphasic clearance from the plasma): about 24 hours
- absorption [1]: Unpredictable absorption
- peak concentration in plasma [1]: approximately 0.4 mM

Compound: COc1cccc2c1C(=O)c1c(O)c3c(c(O)c1C2=O)C[C@@](O)([C@H](C)O)C[C@@H]3O[C@H]1C[C@H](N)[C@H](O)[C@H](C)O1 [daunorubicinol]
- half-life ([1]; in vivo): about 27 hr

Compound: Cc1c2oc3c(C)ccc(C(=O)N[C@@H]4C(=O)N[C@H](C(C)C)C(=O)N5CCC[C@H]5C(=O)N(C)CC(=O)N(C)[C@@H](C(C)C)C(=O)O[C@@H]4C)c3nc-2c(C(=O)N[C@@H]2C(=O)N[C@H](C(C)C)C(=O)N3CCC[C@H]3C(=O)N(C)CC(=O)N(C)[C@@H](C(C)C)C(=O)O[C@@H]2C)c(N)c1=O [Actinomycin D] (I: T[dV]P[Sar][NMeV] / II: T[dV]P[Sar][NMeV]; ester I:1-I:C, II:1-II:C; linker I:N-II:N via Actinocin(9to1))
- excreted into the urine ([1]; in vivo): 10%
- half-life ([1]; in vivo): about 36 hr
- part of the dose excreted intact into the bile ([1]; in vivo): Half
- passage of the blood-brain barrier ([1]; in vivo): does not pass the blood-brain barrier

Compound: O=C(O)CCCc1ccc(N(CCCl)CCCl)cc1 [Chlorambucil, 4-(bis(2-chlorethyl)amino)benzenebutanoic acid]
- absorption [1]: rapidly and completely absorbed

Compound: O=NN(CCCl)C(=O)NC1CCCCC1 [Lomustine, 1-(2-chloro-ethyl)-3-cyclohexyl-1nitrosourea]
- tissue levels ([1]; in vivo, iv): comparable to plasma levels
- part of radioactivity excreted as degradation products within 24 hours ([1]; in vivo, po): about half
- ionisation [10]: relatively unionized

Compound: CO[C@@]12[C@H](COC(N)=O)C3=C(C(=O)C(C)=C(N)C3=O)N1C[C@@H]1N[C@@H]12 [Mitomycin]
- time required to reduce the serum concentration by 50% ([9]; 30 mg bolus injection): 17 min
- dose excreted unchanged in the urine ([9]; human, in vivo): Approximately 10%

Compound: sodium arsenite [arsenic]
- Hdm2 expression and p53 localisation [11]: upregulation of Hdm2 and accumulation of p53 in the cytoplasm
- p53 response to genotoxic stress [11]: impaired p53 activation and apoptosis
- effect of arsenic pretreatment on 5FU-induced tumor suppression ([2]; mouse, in vivo): little effect
- effect of arsenic pretreatment on irradiation-induced tumor suppression ([2]; mouse, in vivo): little effect
- growth of the implant tumors ([2]; mouse, in vivo): did not have any detectable effect
- duration of pretreatment adequate for optimal protection [12]: 3 days
- protection (body weight) [12]: a protection less than 3-day pretreatment; also recorded: no further increase of benefits
- reversibility of p53 inhibition [13]: transient and can be completely reversed
- time after arsenic removal until radiation-induced p53 activation is almost completely recovered [13]: 7 days
- time in arsenic-free media until radiation-induced p53 activation is detectable [13]: 5 days
- day of complete return to untreated level of radiation-induced p53 accumulation and p21 expression [14]: 9 days
- day of partial recovery of radiation-induced p53 accumulation and p21 expression [14]: 7 days
- radiation-induced p53 accumulation and p21 expression [14]: suppressed
- reversibility of p53 suppression [14]: temporary and reversible
- effect of arsenic pretreatment on 5FU-induced tumor suppression ([3]; mouse, in vivo): little effect
- effect of arsenic pretreatment on 5FU-induced tumor suppression ([4]; mouse, in vivo): little effect
- growth of the implanted tumors ([4]; mouse, in vivo): did not have any detectable effect
- protection against therapy-induced toxicity [15]: little protection
- p53-dependent tissue damages induced by 5FU [16]: significantly blunted
- body weight [5]: little loss of body weight
- damage to small intestine and bone marrow cells after arsenic pretreatment [5]: significantly inhibited
- therapy-induced body weight loss after arsenic pretreatment [5]: effectively prevented
- 5FU-induced body weight loss after arsenic pretreatment [17]: almost completely prevented
- 5FU-induced body weight loss after arsenic pretreatment [6]: almost completely prevented
- 5FU-induced decrease of bone marrow cellularity after arsenic pretreatment [6]: considerably alleviated
- 5FU-induced small intestine damage after arsenic pretreatment [6]: significantly ameliorated
- body weight [6]: little loss of body weight
- cell proliferation (with enhanced NF-κB and AP-1 activity) [18]: induced proliferation
- cell viability [18]: statistically significant decrease of cell viability

Compound: CC[C@]1(O)C[C@@H]2CN(CCc3c([nH]c4ccccc34)[C@@](C(=O)OC)(c3cc4c(cc3OC)N(C)[C@H]3[C@@](O)(C(=O)OC)[C@H](OC(C)=O)[C@]5(CC)C=CCN6CC[C@]43[C@@H]65)C2)C1 [Vinblastine]
- half-life of disappearance from plasma after distribution, first ([1]; after intravenous injection): approximately 1 hours
- half-life of disappearance from plasma after distribution, second ([1]; after intravenous injection): ~20 h
- excreted into the urine ([1]; in vivo): Approximately 15%
- plasma protein binding ([1]; in vivo): bind to plasma proteins
- recovered in the feces after biliary excretion ([1]; in vivo): about 10%
- absorption [1]: Unpredictable absorption
- peak concentration in plasma [1]: approximately 0.4 mM

Compound: N[C@@H](Cc1ccc(N(CCCl)CCCl)cc1)C(=O)O [Melphalan, 4-(bis(2-chloroethyl)amino)-L-phenylalanine]
- patients with a favorable response ([7]; multiple myeloma, oral administration): one third to one half

Compound: N.N.[Cl][Pt][Cl] [Cisplatin]
- absorption [1]: not absorbed orally

Compound: CS(=O)(=O)OCCCCOS(C)(=O)=O [Busulfan, 1,4-butanediol dimethanesulfonate]
- adults obtaining hematologic remission ([7]; previously untreated chronic myelogenous leukemia): Approximately 90%

Reference: patent publication US8795738B2, “Use of arsenic for cancer therapy protection” (Board of Regents of the University of Texas System, priority 2009, dated 2014)
